Test results: patent US6949558B2, “Enhancement of taxane-based chemotherapy by a CDK1 antagonist” (Yale University, priority 2001, dated 2005)
Numbered stars: 1 amine (or outer) side, 2 acyl side, 3 side chain; on linkers, the order of the positions; unused ones are H or OH. Bridge positions count the residues as written; N and C are the ends. Square brackets hold non-standard residues; d marks the D form. Peptide text beside a SMILES is read from it. I, II: the chains in the order shown. * marks the point of attachment. Actinocin(9to1) = Cc1c2oc3c(C)ccc(C(=O)[*:1])c3nc-2c(C(=O)[*:2])c(N)c1=O; NMeV = CN[C@H](C(=O)O)C(C)C; Cbz = O=C(OCc1ccccc1)*; Sar = CNCC(=O)O; CH2F = FC*

Columns and labels:
Type in all cases: cell-based, human
[1] = test system: p34^cdc2 kinase activity (MPM-2 epitope) in HeLa cells; assay: MPM-2 mitotic phosphoepitope expression (p34^cdc2 kinase activity) in HeLa cells; details: HeLa
[2] = test system: survivin expression in MCF-7 cells; assay: Survivin expression by Western blotting in MCF-7 cells; details: for effect on the increase in survivin expression mediated by adriamycin, taxol or 50 J/m^2 UVB: preincubation with cycloheximide 2 mg/ml or actinomycin D 1 μg/ml
Method: (§1) Cell Cultures, Proteins and Antibodies: Breast carcinoma MCF-7 and cervical carcinoma HeLa cells (American Type Culture Collection, Manassas, Va.) were maintained in culture according to the manufacturer's specifications. For treatment with genotoxic agents, HeLa or MCF-7 cells were incubated with vehicle (DMSO) or taxol (2 μM, Sigma Chemical Co., St. Louis, Mo.), adriamycin (100 nM, Sigma), cis-platin (3 μM, Sigma) or subjected to ultraviolet B (UVB) irradiation at 50 or 300 J/m^2. In some experiments, HeLa or MCF-7 treated with taxol, adriamycin or UVB as described above were incubated with inhibitors of transcription (actinomycin D, 1 μg/ml) or translation (cycloheximide, 2 mg/ml) before determination of protein expression by Western blotting. […] A replication-deficient adenovirus encoding wild type survivin (pAd-Survivin) or control encoding Green Fluorescence Protein (pAd-GFP) was generated using the pAd-Easy system as described previously (M. Mesri et al. (2001) J. Clin. Invest. 108: 981-90), and propagated in HEK293 cells with purification by CsCl banding. […] Antibodies to p34^cdc2 or bcl-2 were obtained from Pharmingen (San Diego, Calif.) and R&D, respectively. An antibody to β-actin was from Sigma and antibodies to MPM-2 mitotic phosphoproteins was from Upstate Biotechnology (Lake Placid, N.Y.).
(§2) In some experiments, total RNA was extracted from MCF-7 cells at various time intervals after adriamycin treatment, and hybridized with 32 P-labeled survivin cDNA as described previously. Radioactive bands were detected by autoradiography. […] In other experiments, samples were transferred to nylon membranes and analyzed by Western blotting with antibodies to p34^cdc2 (1 μg/ml), survivin (2 μg/ml), or survivinT34* (5 μg/ml).

[3] = test system: survivin expression in HeLa cells; assay: Survivin expression by Western blotting in HeLa cells
Method: as §1, §2
In other experiments, HeLa cells were treated with taxol (0.2 μM) for 16 h followed by the DNA damaging agent adriamycin (100 nM, Sigma) or the nucleoside analog 5-Fluorouracil (500 μM, Sigma) for 8-32 h at 37° C. […] In some experiments, HeLa cells were transfected by lipofectamine with a minimal survivin promoter construct upstream of a luciferase reporter gene (pLuc-cyc1.2), as described (F. Li et al. (1998) Nature 396: 580-584). Cells were treated with taxol (2 μM) or UVB (50 J/m2), and analyzed for changes in luciferase activity at increasing time intervals (12-36 h) in a luminometer. Luciferase values were normalized to β-galactosidase expression. […] The immune complexes were separated by SDS gel electrophoresis and analyzed with antibodies to survivin or a-survivinT34* by Western blotting.

HeLa cells = assay: Apoptosis by DNA content analysis and flow cytometry in HeLa cells
[4] = test system: p34^cdc2 kinase activity (MPM-2 epitope) in MCF-7 cells; assay: MPM-2 mitotic phosphoepitope expression (p34^cdc2 kinase activity) in MCF-7 cells; details: vincristine (FIG. 7)
Method: MPM-2 Mitotic Phosphoepitope Expression: For detection of mitotic phosphoproteins (D. D. Vandre et al. (1989) J. Cell Sci. 94: 245-58), MCF-7 cells (1-2×10^5 cells/60 mm dish) were treated with taxol (2 μM), adriamycin (100 nM), 50 or 300 J/m^2 UVB irradiation and cultured for 0, 8, 16, 24 or 36 h at 37° C. Cells were fixed in 70% ethanol, labeled with MPM-2 antibody (6 μg/ml) followed by addition of goat anti-mouse FITC (Boehringer Mannheim) for 1 h at 22° C. in the presence of 5 μg/ml propidium iodide (PI) containing 50 μg/ml RNase A. Samples were analyzed on a FACScan (Becton Dickinson, Mountain View, Calif.), using CellQuest software.
MPM-2 Mitotic Phosphoepitope Expression: For detection of mitotic phosphoproteins (D. D. Vandre et al. (1989) J. Cell Sci. 94: 245-258), MCF-7 cells (1-2×10^5 cells/60 mm dish) were treated with taxol (0.2 μM), or vincristine (100 nM) for increasing time intervals (8-36 h) at 37° C. Cells were fixed in 70% ethanol, labeled with MPM-2 antibody (6 μg/ml; Upstate Biotechnology, Lake Placid, N.Y.) followed by addition of goat anti-mouse FITC (Boehringer Mannheim) for 1 h at 22° C. in the presence of 5 μg/ml propidium iodide containing 50 μg/ml RNAse A. Samples were analyzed on a FACScan (Becton Dickinson, Mountain View, Calif.), using CellQuest software. Data are expressed as %MPM-2 positive cells in the entire population.

MCF-7 cells = assay: Apoptosis by DNA content analysis and flow cytometry in MCF-7 cells; details: taxol 2 μM, adriamycin 100 nM, cis-platin 3 μM (Example 7)
Method: Cervical carcinoma HeLa (functionally inactivated p53) cells or breast carcinoma MCF-7 (wild type p53) cells were plated at 50-60% confluency in C-6 wells. […]
After 4, 8, 16, and 32 hours of incubation, without removing taxol from the wells, purvalanol A was added at three increasing concentrations, 1, 10 and 20 uM (FIG. 1). A control was performed with addition of purvalanol A at the 0-h time point.
The cell populations were harvested at increasing time intervals from the 0-h time point or corresponding to the addition of purvalanol A. Apoptosis was analyzed by DNA content analysis and flow cytometry (DAPI staining).

[5] = genistein 25 μM or TNF a 5 ng/ml, 48 h

## O=C1Cc2c([nH]c3ccc([N+](=O)[O-])cc23)-c2ccccc2N1 [alsterpaullone]
[1]; taxol 0.2 μM 16 h then Cdk inhibitor for 16 h (Purvalanol A 10 μM, alsterpaullone 20 μM, flavopiridol 250 nM, olomoucine 400 μM)
  MPM-2 mitotic phosphoepitope expression: partially inhibited MPM-2 expression
[1]; taxol 0.2 μM 16 h then Cdk inhibitor for 32 h
  MPM-2 mitotic phosphoepitope expression: suppressed mitotic phosphoprotein expression

## C[C@@H]1C[C@@H]([C@H](O)CC2CC(=O)NC(=O)C2)C(=O)[C@@H](C)C1 [cycloheximide]
[2]
  effect on the increase in survivin expression mediated by adriamycin, taxol or 50 J/m^2 UVB: significantly inhibited the increase in survivin expression

## O=c1c(-c2ccc(O)cc2)coc2cc(O)cc(O)c12 [genistein]
[3]; [5]
  survivin expression: did not affect survivin expression

## COC(=O)C[C@H](NC(=O)[C@H](C)NC(=O)[C@@H](NC(=O)OCc1ccccc1)C(C)C)C(=O)CF [Z-VAD-fink, Z-VAD-fmk] (Cbz-Val-Ala-Asp(OMe)-CH2F)
HeLa cells; preincubation with caspase inhibitor
  effect on flavopiridol-induced apoptosis: suppressed flavopiridol-induced apoptosis

## CC[C@]1(O)C[C@H]2CN(CCc3c([nH]c4ccccc34)[C@@](C(=O)OC)(c3cc4c(cc3OC)N(C=O)[C@H]3[C@@](O)(C(=O)OC)[C@H](OC(C)=O)[C@]5(CC)C=CCN6CC[C@]43[C@@H]65)C2)C1 [vincristine]
[4]
  cdc2 kinase activity: induces cdc2 kinase activity
HeLa cells; vincristine 100 nM
  cell cycle arrest: sustained mitotic (prometaphase) arrest
[1]; vincristine 100 nM
  p34^cdc2 kinase activity: elevated p34^cdc2 kinase activity
[3]; vincristine 100 nM
  survivin expression: increased survivin expression

## N.N.[Cl][Pt][Cl] [cis-platin]
MCF-7 cells
  apoptosis: negligible apoptosis
  cell cycle arrest: G2/M arrest
[2]; cis-platin 3 μM
  effect on survivin levels: did not affect survivin levels
[2]; cisplatin 3 μM
  increased expression of survivin, compared with taxol: less effective

## TNF a
[3]; [5]
  survivin expression: did not affect survivin expression

## O=c1[nH]cc(F)c(=O)[nH]1 [5-FU, 5-Fluorouracil]
HeLa cells; taxol 0.2 μM 16 h then adriamycin 100 nM or 5-Fluorouracil 500 μM
  enhancement of apoptosis vs single agent treatment: did not result in enhanced apoptosis

## Cc1c2oc3c(C)ccc(C(=O)N[C@@H]4C(=O)N[C@H](C(C)C)C(=O)N5CCC[C@H]5C(=O)N(C)CC(=O)N(C)[C@@H](C(C)C)C(=O)O[C@@H]4C)c3nc-2c(C(=O)N[C@@H]2C(=O)N[C@H](C(C)C)C(=O)N3CCC[C@H]3C(=O)N(C)CC(=O)N(C)[C@@H](C(C)C)C(=O)O[C@@H]2C)c(N)c1=O [actinomycin D] (I: T[dV]P[Sar][NMeV] / II: T[dV]P[Sar][NMeV]; ester I:1-I:C, II:1-II:C; linker I:N-II:N via Actinocin(9to1))
[2]
  effect on the increase in survivin expression mediated by adriamycin, taxol or 50 J/m^2 UVB: significantly inhibited the increase in survivin expression
